Ki data for 24 compounds are collected here from patent publication US20060063759A1, “Tricyclic steroid hormone nuclear receptor modulators” (priority 2002, published 2006).

The target in assay [1] is T1, human MR (Homo sapiens, UniProt P08235).
T1 construct: The full length human MR gene is cloned from a human kidney or human brain cDNA library; His tag from the pAcHLT vector (own knowledge); made in house; host or cells: Sf9 insect cells (baculovirus, pAcHLT transfer vector)
T1 sequence (P08235 1-984): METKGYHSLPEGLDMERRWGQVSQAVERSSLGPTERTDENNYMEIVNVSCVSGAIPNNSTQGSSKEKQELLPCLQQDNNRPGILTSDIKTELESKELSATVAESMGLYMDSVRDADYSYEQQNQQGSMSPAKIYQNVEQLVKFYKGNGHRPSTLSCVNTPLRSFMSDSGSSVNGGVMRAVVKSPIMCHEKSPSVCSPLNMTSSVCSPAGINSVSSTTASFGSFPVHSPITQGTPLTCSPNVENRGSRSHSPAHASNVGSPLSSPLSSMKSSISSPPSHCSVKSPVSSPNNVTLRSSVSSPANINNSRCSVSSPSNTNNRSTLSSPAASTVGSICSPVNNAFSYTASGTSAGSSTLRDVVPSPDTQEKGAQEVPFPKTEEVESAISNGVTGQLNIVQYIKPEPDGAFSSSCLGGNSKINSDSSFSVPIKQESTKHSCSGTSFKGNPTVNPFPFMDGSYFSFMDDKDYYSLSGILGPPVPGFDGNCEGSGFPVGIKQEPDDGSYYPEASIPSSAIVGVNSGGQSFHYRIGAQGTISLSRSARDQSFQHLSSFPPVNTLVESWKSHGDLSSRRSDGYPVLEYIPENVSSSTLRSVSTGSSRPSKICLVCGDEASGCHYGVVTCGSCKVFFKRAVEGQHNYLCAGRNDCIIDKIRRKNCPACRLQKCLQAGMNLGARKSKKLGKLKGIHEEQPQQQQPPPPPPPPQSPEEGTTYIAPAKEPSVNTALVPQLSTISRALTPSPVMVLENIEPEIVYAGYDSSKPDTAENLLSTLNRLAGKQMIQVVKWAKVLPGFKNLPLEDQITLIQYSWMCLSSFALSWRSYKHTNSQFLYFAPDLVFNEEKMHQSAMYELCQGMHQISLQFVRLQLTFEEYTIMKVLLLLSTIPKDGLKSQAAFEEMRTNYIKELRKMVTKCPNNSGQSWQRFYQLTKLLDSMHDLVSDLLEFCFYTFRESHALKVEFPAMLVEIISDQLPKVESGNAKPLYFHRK
In words: Mineralocorticoid Receptor Binding Assay ([3H]-aldosterone). The conditions noted are these: [3H]-aldosterone binding, human MR expressed in Sf9 cells; read-out: MR Ki. Summed up:
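Lysate supernatant of Sf9 cells expressing full-length human MR (20-25 μg protein) was incubated with 0.5 nM [3H]-aldosterone and test compound in molybdate/Tris/phosphate/glycerol buffer, pH 7.5, ~16 h at 4 °C. Bound ligand was filtered and counted by scintillation; IC50 is the concentration halving [3H]-aldosterone binding.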

Assay [2] deals with T2, glucocorticoid receptor (Homo sapiens, UniProt P04150).
T2 construct: containing 50-200 ug of A549 cell extract and 1.86 nM [^3H]-dexamethasone; host or cells: A549 human lung epithelial cells (sonicated cell extract)
T2 sequence (P04150 1-777): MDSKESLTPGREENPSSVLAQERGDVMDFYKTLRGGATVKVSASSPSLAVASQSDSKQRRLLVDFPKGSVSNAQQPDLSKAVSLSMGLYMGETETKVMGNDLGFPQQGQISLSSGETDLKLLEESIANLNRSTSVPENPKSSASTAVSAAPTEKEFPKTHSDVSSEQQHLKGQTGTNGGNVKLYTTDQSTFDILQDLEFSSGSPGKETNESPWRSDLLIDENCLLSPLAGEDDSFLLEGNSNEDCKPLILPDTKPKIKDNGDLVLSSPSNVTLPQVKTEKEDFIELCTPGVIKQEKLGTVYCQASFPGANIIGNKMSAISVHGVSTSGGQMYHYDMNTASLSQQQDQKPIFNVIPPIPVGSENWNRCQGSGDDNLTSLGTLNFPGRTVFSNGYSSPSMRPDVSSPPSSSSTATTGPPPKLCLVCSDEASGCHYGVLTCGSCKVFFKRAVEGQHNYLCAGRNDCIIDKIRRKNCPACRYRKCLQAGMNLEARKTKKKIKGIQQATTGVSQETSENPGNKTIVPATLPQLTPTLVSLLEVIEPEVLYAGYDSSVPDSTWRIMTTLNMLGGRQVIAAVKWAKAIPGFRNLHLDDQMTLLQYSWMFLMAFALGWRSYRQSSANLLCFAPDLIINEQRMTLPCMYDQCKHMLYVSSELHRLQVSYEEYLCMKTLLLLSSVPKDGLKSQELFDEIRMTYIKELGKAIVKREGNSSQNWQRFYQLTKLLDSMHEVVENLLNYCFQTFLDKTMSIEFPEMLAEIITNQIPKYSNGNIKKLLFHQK
As to the kind of experiment: Glucocorticoid Receptor Binding Assay ([3H]-dexamethasone, A549 cell extract). The conditions noted are these: [3H]-dexamethasone binding, read-out: GR Ki. Summed up: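 A549 cell extract (50–200 ug) incubated with 1.86 nM [3H]-dexamethasone and test compound for 16 h at 4 °C in Tris-HCl pH 7.2 buffer with glycerol and molybdate. Unbound radioligand removed by dextran-coated charcoal, then supernatant bound counts measured by scintillation.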

As a reminder, the Ki is a dissociation constant, usually derived from enzyme kinetics or from competition with a known ligand.

For `CN(C)S(=O)(=O)Nc1cccc(C=C2c3ccccc3CCc3ccccc32)c1` [Example 112, Dimethylsulfamic acid [3-(10,11-dihydro-dibenzo[a,d]cyclohepten-5-ylidenemethyl)-phenyl]-amide], the Ki in assay [1] and in assay [2] was < 500 nM throughout.
Take `CN(C)S(=O)(=O)Nc1ccc(C=C2c3ccccc3CCc3ccccc32)cc1` [Example 113, Dimethylsulfamic acid [4-(10,11-dihydro-dibenzo[a,d]cyclohepten-5-ylidenemethyl)-phenyl]-amide]: the Ki in assay [1] and in assay [2] was < 500 nM in each case.
For the compound `CC(=O)Nc1cccc(C=C2c3ccccc3CCc3ccccc32)c1` [Example 114, N-[3-(10,11-Dihydro-dibenzo[a,d]cyclohepten-5-ylidenemethyl)-phenyl]-acetamide], the Ki in assay [1] and in assay [2] was < 500 nM throughout.
`CNc1cccc(C=C2c3ccccc3CCc3ccccc32)c1` [Example 118, [3-(10,11-Dihydro-dibenzo[a,d]cyclohepten-5-ylidenemethyl)-phenyl]-methyl-amine]: the Ki in assay [1] and in assay [2] was < 500 nM each time.
In the case of `CNc1ccccc1C=C1c2ccccc2CCc2ccccc21` [Example 120, [2-(10,11-Dihydro-dibenzo[a,d]cyclohepten-5-ylidenemethyl)-phenyl]-methyl-amine], the Ki was < 500 nM in assay [1] and < 10000 nM in assay [2].
The matching figures for `CN(C)c1ccccc1C=C1c2ccccc2CCc2ccccc21` [Example 121, [2-(10,11-Dihydro-dibenzo[a,d]cyclohepten-5-ylidenemethyl)-phenyl]-dimethyl-amine]: < 500 nM and < 10000 nM.
Taken in the same sequence, the figures for `CS(=O)(=O)Nc1cccc(CC2c3ccccc3CCc3ccccc32)c1` [Example 125, N-[3-(10,11-Dihydro-5H-dibenzo[a,d]cyclohepten-5-ylmethyl)-phenyl]-methanesulfonamide] were < 500 nM and < 500 nM.
The matching figures for `NC(=O)Nc1cccc(C=C2c3ccccc3CCc3ccccc32)c1` [Example 128, [3-(10,11-Dihydro-dibenzo[a,d]cyclohepten-5-ylidenemethyl)-phenyl]-urea]: < 500 nM and < 1000 nM.
On to `NC(=O)Nc1ccc(C=C2c3ccccc3CCc3ccccc32)cc1` [Example 129, [4-(10,11-Dihydro-dibenzo[a,d]cyclohepten-5-ylidenemethyl)-phenyl]-urea], for which the Ki in assay [1] and in assay [2] was < 500 nM in each case.
Consider `Cc1ccccc1C=C1c2ccccc2CCc2ccccc21` [Example 130, 5-(2-Methyl-benzylidene)-10,11-dihydro-5H-dibenzo [a,d]cycloheptene], for which the Ki was < 500 nM in assay [1] and < 10000 nM in assay [2].
Taken in the same sequence, the figures for `Cc1ccccc1CC1c2ccccc2CCc2ccccc21` [Example 131, 5-(2-Methyl-benzyl)-10,11-dihydro-5H-dibenzo[a,d]cycloheptene] were < 500 nM and < 10000 nM.
Taken in the same sequence, the figures for `Cc1cccc(C=C2c3ccccc3CCc3ccccc32)c1` [Example 132, 5-(3-Methyl-benzylidene)-10,11-dihydro-5H-dibenzo[a,d]cycloheptene] were < 500 nM and < 1000 nM.
Turning to `Cc1cccc(CC2c3ccccc3CCc3ccccc32)c1` [Example 133, 5-(3-Methyl-benzyl)-10,11-dihydro-5H-dibenzo[a,d]cycloheptene], the Ki in assay [1] was < 500 nM; in assay [2] it was < 1000 nM.
For the compound `FC(F)(F)c1cccc(CC2c3ccccc3CCc3ccccc32)c1` [Example 137, 5-(3-Trifluoromethyl-benzyl)-10,11-dihydro-5H-dibenzo[a,d]cycloheptene], the figures for the Ki in assay [1] and in assay [2] were < 500 nM and < 1000 nM, respectively.
As for `FC(F)(F)c1cc(CC2c3ccccc3CCc3ccccc32)cc(C(F)(F)F)c1` [Example 141, 5-(3,5-Bis-Trifluoromethyl-benzyl)-10,11-dihydro-5H-dibenzo[a,d]cycloheptene], the Ki in assay [1] and in assay [2] was < 500 nM throughout.
For `Cn1cnc(S(=O)(=O)Nc2ccc(C=C3c4ccccc4CCc4ccccc43)cc2)c1` [Example 143, 1-Methyl-1H-imidazole-4-sulfonic acid [4-(10,11-dihydro-dibenzo[a,d]cyclohepten-5-ylidenemethyl)-phenyl]-amide], the Ki in assay [1] is < 500 nM; in assay [2], < 10000 nM.
Taken in the same sequence, the figures for `CS(=O)(=O)NCc1cccc(C=C2c3ccccc3CCc3ccccc32)c1` [Example 145, N-[3-(10,11-Dihydro-dibenzo[a,d]cyclohepten-5-ylidenemethyl)-benzyl]-methanesulfonamide] were < 500 nM and < 500 nM.
The matching figures for `COc1cc(C=C2c3ccccc3CCc3ccccc32)ccc1F` [Example 148, 5-(4-Fluoro-3-methoxy-benzylidene)-10,11-dihydro-5H-dibenzo[a,d]cycloheptene]: < 500 nM and < 1000 nM.
The matching figures for `Oc1cc(C=C2c3ccccc3CCc3ccccc32)ccc1F` [Example 149, 5-(10,11-Dihydro-dibenzo[a,d]cyclohepten-5-ylidenemethyl)-2-fluoro-phenol]: < 500 nM and < 500 nM.
As to `Oc1ccc(F)c(C=C2c3ccccc3CCc3ccccc32)c1` [Example 151, 3-(10,11-Dihydro-dibenzo[a,d]cyclohepten-5-ylidenemethyl)-4-fluoro-phenol], the figures for the inhibitory constant (Ki) in assay [1] and in assay [2] were < 500 nM and < 1000 nM, respectively.
The matching figures for `COc1cccc(C=C2c3ccccc3CCc3ccccc32)c1F` [Example 152, 5-(2-Fluoro-3-methoxy-benzylidene)-10,11-dihydro-5H-dibenzo[a,d]cycloheptene]: < 500 nM and < 10000 nM.
As for `COc1cc(F)cc(C=C2c3ccccc3CCc3ccccc32)c1` [Example 154, 5-(3-Fluoro-5-methoxy-benzylidene)-10,11-dihydro-5H-dibenzo[a,d]cycloheptene], the inhibition constant (Ki) in assay [1] was < 500 nM; in assay [2] it was < 1000 nM.
Take `Oc1cc(F)cc(C=C2c3ccccc3CCc3ccccc32)c1` [Example 155, 3-(10,11-Dihydro-dibenzo[a,d]cyclohepten-5-ylidenemethyl)-5-fluoro-phenol]: the Ki in assay [1] and in assay [2] was < 500 nM in each case.
Regarding `Oc1cc(C=C2c3ccccc3CCc3ccccc32)ccc1Cl` [Example 157, 2-Chloro-5-(10,11-dihydro-dibenzo[a,d]cyclohepten-5-ylidenemethyl)-phenol], the inhibition constant Ki in assay [1] was < 500 nM; in assay [2] it was < 1000 nM.
